Experimental data from patent US20200061090A1, “AGENT FOR PREVENTING WORSENING OF INSULIN RESISTANCE OR AMELIORATING INSULIN RESISTANCE” (B FOOD SCIENCE CO., LTD., priority 2017, published 2020).

What was measured:
[1] = tested on: LETO (Long-Evans Tokushima Otsuka) rats; experiment: Effect of 1-kestose on LETO control rats of the type 2 diabetes model: plasma insulin and blood glucose; assay type: in vivo, rat
Description: (§1) OLETF (Otsuka Long-Evans Tokushima Fatty) rats (Japan SLC, Inc.), which are model animals with pathological conditions of type 2 diabetes, and LETO (Long-Evans Tokushima Otsuka) rats (Japan SLC, Inc.), which are the controls thereof, were prepared. The LETO rats were divided into 2 groups of 5 rats each to be Group A and Group B. Further, the OLETF rats were divided into 3 groups of 8 rats each to be Group C, Group D, and Group E. During the breeding period, Group A and Group C had discretionary intake of “feed without 1-kestose” described in Example 1 (1), Group B and Group E had discretionary intake of “feed containing 5 mass % of 1-kestose”, and Group D had discretionary intake of “feed containing 1 mass % of 1-kestose”. The rats were bred for 14 days with the same breeding conditions as Example 1 (1)
(§2) For the rats of each Group of this Example 3 (1), plasma insulin levels and blood glucose levels were measured by the method described in Example 1 (2) to calculate an average value and a standard deviation by each Group. Additionally, plasma insulin levels and blood glucose levels are shown in FIG. 6 and FIG. 7 in bar graphs, respectively.

[2] = tested on: OLETF (Otsuka Long-Evans Tokushima Fatty) rats; experiment: Effect of 1-kestose on type 2 diabetes model OLETF rats: plasma insulin and blood glucose; assay type: in vivo, rat; details: for Plasma insulin level / Blood glucose level: 14 days, average ± SD; for Plasma insulin level: Group C control 3.36 ± 0.53; for Blood glucose level: Group C control 151 ± 6
Description: as §1, §2

[3] = Food processing and ingredients, Vol. 49, No. 12, p. 9, 2014; cited from earlier work
SD rats [4] = experiment: Effect of 1-kestose on rats taking an ordinary diet (healthy model): serum insulin and blood glucose; assay type: in vivo, rat; details: for Serum insulin level / Blood glucose level: average ± SD; for Serum insulin level: Group A control 4.34 ± 0.51; for Blood glucose level: Group A control 207 ± 11
Description: Feed containing 1-kestose in such a way as to be 0, 0.5, 1, 2.5 and 5 mass % was prepared by CLEA Japan, Inc. on commission. The composition of feed is shown below.
Cornstarch: 39.7486, milk casein: 20, pregelatinized cornstarch: 13.2, granulated sugar or granulated sugar and 1-kestose: 10, purified soybean oil: 7, cellulose powder: 5, mineral mix: 3.5, vitamin mix: 1, L-cystine: 0.3, choline bitartrate: 0.25, tertiary butyl hydroquinone: 0.0014.
Forty SD rats (Japan SLC, Inc.) were divided into 5 groups of 8 rats each to be Groups A to E. Group A and Groups B to E had discretionary intake of feed without 1-kestose and 1-kestose-containing feed, respectively, while bred for 30 days. Breeding conditions included a temperature of 23±1° C., a light period of 12 hours (8:00 to 20:00) and a dark period of 12 hours (20:00 to 8:00).
The obtained serum was measured for an insulin level by ELISA technique and a glucose level by glucose oxidase method, to calculate an average value and a standard deviation by each Group. Additionally, serum insulin levels and blood glucose levels are shown in FIG. 1 and FIG. 2 in bar graphs, respectively.

SD rats [5] = experiment: Effects of 1-kestose on rats taking a high-fat diet (obese model) or ordinary diet: plasma insulin, blood glucose, body weight; assay type: in vivo, rat; details: for Plasma insulin level / Blood glucose level: 135 days; for Plasma insulin level / Blood glucose level / Body weight: average ± SD; for Body weight: end of breeding period (19 weeks)
Description: SD rats (Japan SLC, Inc.) were divided into 4 groups of 6 to 8 rats each to be Group A to Group D. During the breeding period, Group A and Group C had discretionary intake of tap water. On the other hand, Group B and Group D were allowed to take 1-kestose by providing discretionary intake of a solution in which 1-kestose was dissolved in purified water in such a way as to be 2 mass %. Additionally, Group A and Group B had discretionary intake of […] (Research Diets, Inc.) as an “ordinary diet”, and Group C and Group D had discretionary intake of D12492 (Research Diets, Inc.) as a “high-fat diet”. The rats were bred for 135 days with the same breeding conditions as Example 1 (1) except feed. The composition of feed is shown below.
(§3) Casein: 200, L-cystine: 3, Cornstarch: 506.2, maltodextrin 10: 125, sucrose: 68.8, cellulose BW200: 50, purified soybean oil: 25, lard: 20, mineral mix S10026: 10, dicalcium phosphate: 13, calcium carbonate: 5.5, potassium citrate monohydrate: 16.5, vitamin mix V10001: 10, choline bitartrate: 2, yellow synthetic dye (FD&C Yellow Dye #1): 0.04, blue synthetic dye (FD&C Blue Dye #1): 0.01.
as §3, with “3,” for “3, Cornstarch: 506.2,”, “245,” for “20,”, “2,” for “2, yellow synthetic dye (FD&C Yellow Dye #1): 0.04,”, “0.05.” for “0.01.”
As the average intake amount of water taken by a rat per day was about 22 mL/rat.
The rats of each Group in this Example 2 (1) were measured for body weight every week during the breeding period, and an average value by each Group was calculated and expressed in line graphs. Note that the body weights (g) of each Group at the start of breeding period were 272±5 for Group A, 268±6 for Group B, 272±3 for Group C, and 269±3 for Group D.
Further, plasma insulin levels and blood glucose levels were measured by the method described in Example 1 (2) to calculate an average value and a standard deviation by each Group. […] Additionally, insulin levels and glucose levels are shown in FIG. 4 and FIG. 5 in bar graphs, respectively.

[6] = OLETF rats, Group D, feed containing 1% of 1-kestose (table prints 1.34 g/kg body weight daily)
[7] = OLETF rats, Group E, feed containing 5% of 1-kestose (2.71 g/kg body weight daily)
[8] = Group C, feed containing 1% of 1-kestose (0.54 g/kg body weight daily), 30 days
[9] = Group D, feed containing 2.5% of 1-kestose (1.34 g/kg body weight daily), 30 days
[10] = Group E, feed containing 5% of 1-kestose (2.71 g/kg body weight daily), 30 days

## OC[C@H]1O[C@@](CO)(OC[C@@]2(O[C@H]3O[C@H](CO)[C@@H](O)[C@H](O)[C@H]3O)O[C@H](CO)[C@@H](O)[C@@H]2O)[C@@H](O)[C@@H]1O [1-kestose]
[1]; Group B vs Group A
  Plasma insulin levels compared with LETO rats not taking 1-kestose: lower plasma insulin levels
[1]; LETO rats, Group B, feed containing 5% of 1-kestose (2.71 g/kg body weight daily), 14 days, average ± SD, Group A control 1.49 ± 0.19
  Plasma insulin level: 1.08 ± 0.09 ng/mL
[1]; LETO rats, Group B, feed containing 5% of 1-kestose (2.71 g/kg body weight daily), 14 days, average ± SD, Group A control 146 ± 3
  Blood glucose level: 144 ± 2 mg/dL
[1]; LETO rats, regardless of whether or not 1-kestose was taken
  Blood glucose levels compared among groups: equivalent blood glucose levels
[2]; Group C>Group D>Group E
  Plasma insulin levels compared with OLETF rats not taking 1-kestose: lower plasma insulin levels
[2]; [6]
  Plasma insulin level: 3.04 ± 0.69 ng/mL
  Blood glucose level: 163 ± 4 mg/dL
[2]; [7]
  Plasma insulin level: 2.53 ± 0.29 ng/mL
  Blood glucose level: 157 ± 3 mg/dL
[2]; OLETF rats, regardless of whether or not 1-kestose was taken
  Blood glucose levels compared among groups: equivalent blood glucose levels
[3]
  Toxicity in mutagenicity test, acute toxicity test, subchronic toxicity test and chronic toxicity test: not recognized to have toxicity
SD rats [4]; Group B, feed containing 0.5% of 1-kestose (0.27 g/kg body weight daily), 30 days, n=8
  Serum insulin level: 3.04 ± 0.38 ng/mL
SD rats [4]; Group B, feed containing 0.5% of 1-kestose (0.27 g/kg body weight daily), 30 days
  Blood glucose level: 202 ± 10 mg/dL
SD rats [4]; [8]
  Serum insulin level: 3.08 ± 0.31 ng/mL
  Blood glucose level: 192 ± 11 mg/dL
SD rats [4]; [9]
  Serum insulin level: 2.56 ± 0.31 ng/mL
  Blood glucose level: 202 ± 4 mg/dL
SD rats [4]; [10]
  Serum insulin level: 2.01 ± 0.24 ng/mL
  Blood glucose level: 188 ± 7 mg/dL
SD rats [4]; Groups A to E, irrelevant to the intake amount
  Blood glucose levels compared with rats not taking 1-kestose: equivalent blood glucose levels
SD rats [4]; Groups B, C, D and E (0.5 to 5% 1-kestose in feed) vs Group A, 30 days
  Serum insulin levels compared with Group A (rats not taking 1-kestose): significantly lower
SD rats [5]; Groups A to D, regardless of whether or not 1-kestose was taken
  Blood glucose levels compared among groups: equivalent blood glucose levels
SD rats [5]; High-fat diet, Group D vs Groups A and B, Group C notably higher
  Plasma insulin levels of rats taking the high-fat diet and 1-kestose compared with rats taking the ordinary diet: equivalent plasma insulin levels
SD rats [5]; High-fat diet, Group D, 2 mass % 1-kestose solution (0.44 g/rat daily), Group C tap water 6.65 ± 1.03
  Plasma insulin level: 2.28 ± 0.63 ng/mL
SD rats [5]; High-fat diet, Group D, 2 mass % 1-kestose solution (0.44 g/rat daily), Group C tap water 155 ± 4
  Blood glucose level: 147 ± 2 mg/dL
SD rats [5]; High-fat diet, Group D, 2 mass % 1-kestose solution (0.44 g/rat daily), Group C tap water 764 ± 32
  Body weight: 718 ± 21 g
SD rats [5]; Ordinary diet, Group B, 2 mass % 1-kestose solution (0.44 g/rat daily), Group A tap water 147 ± 5
  Blood glucose level: 143 ± 3 mg/dL
SD rats [5]; Ordinary diet, Group B, 2 mass % 1-kestose solution (0.44 g/rat daily), Group A tap water 665 ± 14
  Body weight: 679 ± 22 g
SD rats [5]; Ordinary diet, Group B, 2 mass % 1-kestose solution as drinking water (0.44 g/rat daily), Group A tap water 2.48 ± 0.52
  Plasma insulin level: 2.30 ± 0.42 ng/mL
